Measurements published in patent publication US20200187502A1, “MICROBIOCIDAL OXADIAZOLE DERIVATIVES” (SYNGENTA PARTICIPATIONS AG, priority 2017, published 2020).

Assays:
[1] = test system: Puccinia recondita f. Sp. Tritici; assay: Fungicidal activity, wheat leaf disc preventative (brown rust); format: in vivo; details: foliar, 200 ppm in the applied formulation, wheat leaf segments cv. Kanzler, compared to untreated control, 7 to 9 days after application, read-out: disease control
Summary of the method: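 Wheat cv. Kanzler leaf segments on agar were sprayed with formulated compound in water, then inoculated with spores 1 day later. Incubated at 19° C, 75% rh, 12 h light/12 h dark; percent disease control versus untreated scored 7 to 9 days after application.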

[2] = test system: Puccinia recondita f. Sp. Tritici; assay: Fungicidal activity, wheat leaf disc curative (brown rust); format: in vivo; details: foliar, 200 ppm in the applied formulation, wheat leaf segments cv. Kanzler, curative (applied 1 day after inoculation), compared to untreated control, 6 to 8 days after application, read-out: disease control
Description: Leaf disks or leaf segments of various plant species are cut from plants grown in a greenhouse. The cut leaf disks or segments are placed in multiwell plates (24-well format) onto water agar. The leaf disks are sprayed with a test solution before (preventative) or after (curative) inoculation. Compounds to be tested are prepared as DMSO solutions (max. 10 mg/ml) which are diluted to the appropriate concentration with 0.025% Tween20 just before spraying. The inoculated leaf disks or segments are incubated under defined conditions (temperature, relative humidity, light, etc.) according to the respective test system. A single evaluation of disease level is carried out 3 to 14 days after inoculation, depending on the pathosystem. Percent disease control relative to the untreated check leaf disks or segments is then calculated.
Wheat leaf segments cv. Kanzler are placed on agar in multiwell plates (24-well format). The leaf segments are then inoculated with a spore suspension of the fungus. Plates were stored in darkness at 19° C. and 75% relative humidity. The formulated test compound diluted in water was applied 1 day after inoculation. The leaf segments were incubated at 19° C. and 75% relative humidity under a light regime of 12 hours light/12 hours darkness in a climate cabinet and the activity of a compound was assessed as percent disease control compared to untreated when an appropriate level of disease damage appears in untreated check leaf segments (6 to 8 days after application).
The following compounds at 200 ppm in the applied formulation give at least 80% disease control in this test when compared to untreated control leaf disks under the same conditions, which show extensive disease development.

[3] = test system: Glomerella lacenarium (Colletotrichum lacenarium); assay: Fungicidal activity, liquid culture, cucumber preventative (anthracnose); format: cell-based; details: 20 ppm in the applied formulation, liquid culture in PDB, inhibition of growth measured photometrically 3 to 4 days after application, compared to untreated control, read-out: disease control
Summary of the method: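 Photometric measurement of fungal growth inhibition 3 to 4 days after application gives percent activity relative to untreated check. Conidia were suspended in potato dextrose broth and combined with DMSO compound solutions; incubation at 24° C.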

CON(C)C(=O)N(Cc1ccc(-c2noc(C(F)(F)F)n2)s1)OC [Compound 1.6, 1,3-dimethoxy-1-methyl-3-[[5-[5-(trifluoromethyl)-1,2,4-oxadiazol-3-yl]-2-thienyl]methyl]urea]
pest or weed control at 200 ppm [1]: ≥ 80%
pest or weed control at 200 ppm [2]: ≥ 80%
inhibition of growth at 20 ppm [3]: ≥ 80%

CCOC(=O)N(Cc1ccc(-c2noc(C(F)(F)F)n2)s1)OC [Compound 1.28, ethyl N-methoxy-N-[[5-[5-(trifluoromethyl)-1,2,4-oxadiazol-3-yl]-2-thienyl]methyl]carbamate]
pest or weed control at 200 ppm [1]: ≥ 80%
pest or weed control at 200 ppm [2]: ≥ 80%
inhibition of growth at 20 ppm [3]: ≥ 80%

CNS(=O)(=O)N(Cc1ccc(-c2noc(C(F)(F)F)n2)s1)OC [Compound 1.32, 3-[5-[[methoxy(methylsulfamoyl)amino]methyl]-2-thienyl]-5-(trifluoromethyl)-1,2,4-oxadiazole]
pest or weed control at 200 ppm [1]: ≥ 80%
pest or weed control at 200 ppm [2]: ≥ 80%
inhibition of growth at 20 ppm [3]: ≥ 80%

CNC(=O)N(OC)C(C)c1ccc(-c2noc(C(F)(F)F)n2)s1 (stereo not shown) [Compound 1.50, 1-methoxy-3-methyl-1-[1-[5-[5-(trifluoromethyl)-1,2,4-oxadiazol-3-yl]-2-thienyl]ethyl]urea]
pest or weed control at 200 ppm [1]: ≥ 80%
pest or weed control at 200 ppm [2]: ≥ 80%
inhibition of growth at 20 ppm [3]: ≥ 80%

CCONC(=O)N(Cc1ccc(-c2noc(C(F)(F)F)n2)s1)OC [Compound 1.55, 3-ethoxy-1-methoxy-1-[[5-[5-(trifluoromethyl)-1,2,4-oxadiazol-3-yl]-2-thienyl]methyl]urea]
pest or weed control at 200 ppm [1]: ≥ 80%
pest or weed control at 200 ppm [2]: ≥ 80%
inhibition of growth at 20 ppm [3]: ≥ 80%

CON(Cc1ccc(-c2noc(C(F)(F)F)n2)s1)C(=O)N(CC(F)F)C1CC1 [Compound 1.59, 1-cyclopropyl-1-(2,2-difluoroethyl)-3-methoxy-3-[[5-[5-(trifluoromethyl)-1,2,4-oxadiazol-3-yl]-2-thienyl]methyl]urea]
pest or weed control at 200 ppm [1]: ≥ 80%
pest or weed control at 200 ppm [2]: ≥ 80%
inhibition of growth at 20 ppm [3]: ≥ 80%

CCCN(CC1CC1)C(=O)N(Cc1ccc(-c2noc(C(F)(F)F)n2)s1)OC [Compound 1.60, 1-(cyclopropylmethyl)-3-methoxy-1-propyl-3-[[5-[5-(trifluoromethyl)-1,2,4-oxadiazol-3-yl]-2-thienyl]methyl]urea]
pest or weed control at 200 ppm [1]: ≥ 80%
pest or weed control at 200 ppm [2]: ≥ 80%
inhibition of growth at 20 ppm [3]: ≥ 80%

CC(C)C(=O)N(Cc1ccc(-c2noc(C(F)(F)F)n2)s1)C1CC1 [Compound 4.3, N-cyclopropyl-2-methyl-N-[[5-[5-(trifluoromethyl)-1,2,4-oxadiazol-3-yl]-2-thienyl]methyl]propanamide]
pest or weed control at 200 ppm [1]: ≥ 80%
pest or weed control at 200 ppm [2]: ≥ 80%
inhibition of growth at 20 ppm [3]: ≥ 80%

CCOC(=O)N(Cc1ccc(-c2noc(C(F)(F)F)n2)s1)C1CC1 [Compound 4.4, ethyl N-cyclopropyl-N-[[5-[5-(trifluoromethyl)-1,2,4-oxadiazol-3-yl]-2-thienyl]methyl]carbamate]
pest or weed control at 200 ppm [1]: ≥ 80%
pest or weed control at 200 ppm [2]: ≥ 80%
inhibition of growth at 20 ppm [3]: ≥ 80%

CCN(Cc1ccc(-c2noc(C(F)(F)F)n2)s1)C(=O)C(C)OC (stereo not shown) [Compound 4.6, N-ethyl-2-methoxy-N-[[5-[5-(trifluoromethyl)-1,2,4-oxadiazol-3-yl]-2-thienyl]methyl]propanamide]
pest or weed control at 200 ppm [1]: ≥ 80%
pest or weed control at 200 ppm [2]: ≥ 80%
inhibition of growth at 20 ppm [3]: ≥ 80%

CC(C)C(=O)N(Cc1ccc(-c2noc(C(F)(F)F)n2)s1)C(C)C [Compound 4.11, N-isopropyl-2-methyl-N-[[5-[5-(trifluoromethyl)-1,2,4-oxadiazol-3-yl]-2-thienyl]methyl]propanamide]
pest or weed control at 200 ppm [1]: ≥ 80%
pest or weed control at 200 ppm [2]: ≥ 80%
inhibition of growth at 20 ppm [3]: ≥ 80%

COC(C)C(=O)N(Cc1ccc(-c2noc(C(F)(F)F)n2)s1)C1CC1 (stereo not shown) [Compound 4.14, N-cyclopropyl-2-methoxy-N-[[5-[5-(trifluoromethyl)-1,2,4-oxadiazol-3-yl]-2-thienyl]methyl]propanamide]
pest or weed control at 200 ppm [1]: ≥ 80%
pest or weed control at 200 ppm [2]: ≥ 80%
inhibition of growth at 20 ppm [3]: ≥ 80%

CCN(Cc1ccc(-c2noc(C(F)(F)F)n2)s1)C(=O)CNC(C)=O [Compound 4.23, 2-acetamido-N-ethyl-N-[[5-[5-(trifluoromethyl)-1,2,4-oxadiazol-3-yl]-2-thienyl]methyl]acetamide]
pest or weed control at 200 ppm [1]: ≥ 80%
pest or weed control at 200 ppm [2]: ≥ 80%
inhibition of growth at 20 ppm [3]: ≥ 80%

CCN(Cc1ccc(-c2noc(C(F)(F)F)n2)s1)C(=O)CC#N [Compound 4.29, 2-cyano-N-ethyl-N-[[5-[5-(trifluoromethyl)-1,2,4-oxadiazol-3-yl]-2-thienyl]methyl]acetamide]
pest or weed control at 200 ppm [1]: ≥ 80%
pest or weed control at 200 ppm [2]: ≥ 80%
inhibition of growth at 20 ppm [3]: ≥ 80%

CCCC(=O)N(C)Cc1ccc(-c2noc(C(F)(F)F)n2)s1 [Compound 4.34, N-methyl-N-[[5-[5-(trifluoromethyl)-1,2,4-oxadiazol-3-yl]-2-thienyl]methyl]butanamide]
pest or weed control at 200 ppm [1]: ≥ 80%
pest or weed control at 200 ppm [2]: ≥ 80%
inhibition of growth at 20 ppm [3]: ≥ 80%

CCC(=O)N(C)Cc1ccc(-c2noc(C(F)(F)F)n2)s1 [Compound 4.36, N-methyl-N-[[5-[5-(trifluoromethyl)-1,2,4-oxadiazol-3-yl]-2-thienyl]methyl]propanamide]
pest or weed control at 200 ppm [1]: ≥ 80%
pest or weed control at 200 ppm [2]: ≥ 80%
inhibition of growth at 20 ppm [3]: ≥ 80%

CN(Cc1ccc(-c2noc(C(F)(F)F)n2)s1)C(=O)CC#N [Compound 4.39, 2-cyano-N-methyl-N-[[5[5-(trifluoromethyl)-1,2,4-oxadiazol-3-yl]-2-thienyl]methyl]acetamide]
pest or weed control at 200 ppm [1]: ≥ 80%
pest or weed control at 200 ppm [2]: ≥ 80%
inhibition of growth at 20 ppm [3]: ≥ 80%

CC(=O)N(C)Cc1ccc(-c2noc(C(F)(F)F)n2)s1 [Compound 4.41, N-methyl-N-[[5-[5-(trifluoromethyl)-1,2,4-oxadiazol-3-yl]-2-thienyl]methyl]acetamide]
pest or weed control at 200 ppm [1]: ≥ 80%
pest or weed control at 200 ppm [2]: ≥ 80%
inhibition of growth at 20 ppm [3]: ≥ 80%

COCC(=O)N(Cc1ccc(-c2noc(C(F)(F)F)n2)s1)C(C)C [Compound 4.42, N-isopropyl-2-methoxy-N-[[5-[5-(trifluoromethyl)-1,2,4-oxadiazol-3-yl]-2-thienyl]methyl]acetamide]
pest or weed control at 200 ppm [1]: ≥ 80%
pest or weed control at 200 ppm [2]: ≥ 80%
inhibition of growth at 20 ppm [3]: ≥ 80%

CC(=O)NCC(=O)N(Cc1ccc(-c2noc(C(F)(F)F)n2)s1)C(C)C [Compound 4.43, 2-acetamido-N-isopropyl-N-[[5-[5-(trifluoromethyl)-1,2,4-oxadiazol-3-yl]-2-thienyl]methyl]acetamide]
pest or weed control at 200 ppm [1]: ≥ 80%
pest or weed control at 200 ppm [2]: ≥ 80%
inhibition of growth at 20 ppm [3]: ≥ 80%

O=C(CC(F)(F)F)N(Cc1ccc(-c2noc(C(F)(F)F)n2)s1)OCC(F)F [Compound 4.68, N-(2,2-difluoroethoxy)-3,3,3-trifluoro-N-[[5-[5-(trifluoromethyl)-1,2,4-oxadiazol-3-yl]-2-thienyl]methyl]propanamide]
pest or weed control at 200 ppm [2]: ≥ 80%
inhibition of growth at 20 ppm [3]: ≥ 80%

CCN(Cc1ccc(-c2noc(C(F)(F)F)n2)s1)C(=O)C1CC1(F)F (stereo not shown) [Compound 5.15, N-ethyl-2,2-difluoro-N-[[5-[5-(trifluoromethyl)-1,2,4-oxadiazol-3-yl]-2-thienyl]methyl]cyclopropanecarboxamide]
pest or weed control at 200 ppm [2]: ≥ 80%
inhibition of growth at 20 ppm [3]: ≥ 80%

CC(C)N(Cc1ccc(-c2noc(C(F)(F)F)n2)s1)C(=O)C1CCC1 [Compound 5.29, N-isopropyl-N-[[5-[5-(trifluoromethyl)-1,2,4-oxadiazol-3-yl]-2-thienyl]methyl]cyclobutanecarboxamide]
pest or weed control at 200 ppm [2]: ≥ 80%
inhibition of growth at 20 ppm [3]: ≥ 80%

CC(C)N(Cc1ccc(-c2noc(C(F)(F)F)n2)s1)C(=O)C1CCCO1 (stereo not shown) [Compound 5.31, N-isopropyl-N-[[5-[5-(trifluoromethyl)-1,2,4-oxadiazol-3-yl]-2-thienyl]methyl]tetrahydrofuran-2-carboxamide]
pest or weed control at 200 ppm [2]: ≥ 80%
inhibition of growth at 20 ppm [3]: ≥ 80%

CC(C)N(Cc1ccc(-c2noc(C(F)(F)F)n2)s1)C(=O)C1CC1(F)F (stereo not shown) [Compound 5.33, 2,2-difluoro-N-isopropyl-N-[[5-[5-(trifluoromethyl)-1,2,4-oxadiazol-3-yl]-2-thienyl]methyl]cyclopropanecarboxamide]
pest or weed control at 200 ppm [2]: ≥ 80%
inhibition of growth at 20 ppm [3]: ≥ 80%
